Test results from PMC8909805, “Anticancer Activity of (S)-5-Chloro-3-((3,5-dimethylphenyl)sulfonyl)-N-(1-oxo-1-((pyridin-4-ylmethyl)amino)propan-2-yl)-1H-indole-2-carboxamide (RS4690), a New Dishevelled 1 Inhibitor” (Cancers, 2022).

Target: T1, DVL1 binding to FZD4 (Homo sapiens, UniProt O14640)
T1 construct: host or cells: HEK293
T1 sequence (O14640 1-695): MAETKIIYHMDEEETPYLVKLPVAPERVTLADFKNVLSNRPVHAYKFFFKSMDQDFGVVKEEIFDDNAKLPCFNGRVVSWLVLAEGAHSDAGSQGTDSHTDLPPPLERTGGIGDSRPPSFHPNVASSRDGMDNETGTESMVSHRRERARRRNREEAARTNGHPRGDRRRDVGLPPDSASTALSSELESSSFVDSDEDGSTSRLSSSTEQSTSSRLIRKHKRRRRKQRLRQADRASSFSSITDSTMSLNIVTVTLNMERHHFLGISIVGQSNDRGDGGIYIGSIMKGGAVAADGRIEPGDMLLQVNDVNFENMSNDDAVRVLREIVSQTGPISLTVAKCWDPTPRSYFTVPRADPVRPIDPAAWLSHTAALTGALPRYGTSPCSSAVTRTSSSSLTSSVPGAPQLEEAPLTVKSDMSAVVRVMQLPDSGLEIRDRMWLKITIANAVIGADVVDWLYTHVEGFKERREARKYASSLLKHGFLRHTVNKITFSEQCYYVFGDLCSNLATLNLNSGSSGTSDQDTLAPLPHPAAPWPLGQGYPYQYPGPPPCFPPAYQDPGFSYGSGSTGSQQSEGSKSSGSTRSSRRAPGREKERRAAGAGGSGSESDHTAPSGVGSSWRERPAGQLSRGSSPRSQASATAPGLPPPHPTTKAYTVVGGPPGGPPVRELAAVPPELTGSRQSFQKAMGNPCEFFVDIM
Assay: Inhibition of DVL1 (DVL-GFP) recruitment by FZD4 at the plasma membrane of HEK293 cells
Assay type: cell-based
Conditions: HEK293 cells co-transfected with HA-FZD4 and GFP-DVL-1; 24 h treatment; read-out: EC50 ± SD DVL1 Binding Inhibition
Procedure: HEK293 cells were seeded in 96-well tissue culture plates at a density of 5 × 10 ^3/well. After 16–24 h seeding, cells were co-transfected with HA-FZD4-wt (0.04 µg/well) and GFP-tagged DVL-1 (0.04 µg/well) using PEI (0.25 µL/well) in a final volume of 100 µL/well. After 24 h of transfection, the medium was replaced and supplemented with the indicated compounds diluted in culture medium. After 24 h of treatment, cells were fixed in 3.7% formaldehyde freshly diluted in PBS for 30 min at RT, quenched with 0.1 M glycine/PBS for 30 min at RT, and washed with PBS. Samples were observed under a Leica confocal fluorescent microscope. Inhibition of DVL recruitment was measured by counting the percentage of cells losing GFP-DVL-1 localization on the PM. Experiments were performed in triplicate, and the standard deviations are indicated.
The crucial role played by PDZ domains in the spreading of cellular signals and their aberrant activations in many human diseases makes the PDZ domains very attractive targets for drug discovery. […] To identify new DVL1 inhibitors, we followed a virtual screening approach by fixing as the main filter a pharmacophoric model. We speculated that compound 2, the recently reported inhibitor of NHERF1 PDZ1 domain [26], may be able also to bind the DVL PDZ domain. The activity of compound 2 was assayed in HEK293 cells transiently expressing both HA-tagged-FZD4 (HA-FZD4) and the chimeric construct DVL-GFP. In the absence of HA-FZD4, DVL-GFP is localized in punctate intracellular structures known as signalosomes. In the presence of FZD-4 expression, DVL-GFP is recruited on the PM of the cell showing a drastic change in localization. As previously reported, drugs acting as inhibitors of FZD4/DVL binding reduce the amount of DVL-GFP recruited on the PM. […] Thus, we used the information gained from the binding mode of compound 2 to design a pharmacophore model that would lead to the identification of new DVL1 PDZ binders. At the same time, to better distinguish between the inhibitory activities of DVL1 and NHERF1, we added a new query to the pharmacophore model. Actually, comparing the PDZ structures of the studied proteins, we identified a significant difference. The upper part of the carboxylic binding loop was delimited by Tyr24, Ile79 and Val86 for NHERF1, while we observed Leu12, Val75 and Ile81, respectively, for DVL1. […] This peculiar feature of the DVL1 PDZ was included in our pharmacophore model by adding a hydrophobic query to obtain the required selectivity (Figure S1, Supplementary Materials). […] Thus, for each molecule, we obtained 10 conformations, and all of the proposed binding poses (7000 molecules per 10 conformations) were scored by the fitting to the pharmacophore model. […]

Cc1cc(C)cc(S(=O)(=O)c2c(C(=O)N[C@H](C)C(=O)NCc3ccncc3)[nH]c3ccc(Cl)cc23)c1 [(R)-1]
EC50: 29.5 ± 0.9 µM

Cc1cc(C)cc(S(=O)(=O)c2c(C(=O)N[C@@H](C)C(=O)NCc3ccncc3)[nH]c3ccc(Cl)cc23)c1 [(S)-1, (S)-5-Chloro-3-((3,5-dimethylphenyl)sulfonyl)-N-(1-oxo-1-((pyridin-4-ylmethyl)amino)propan-2-yl)-1H-indole-2-carboxamide]
EC50: 0.49 ± 0.11 µM

Cc1cc(C)cc(S(=O)(=O)c2c(C(=O)NC(C)C(=O)NCc3ccncc3)[nH]c3ccc(Cl)cc23)c1 (stereo not drawn) [Compound 1]
EC50: 0.74 ± 0.08 µM
